These results are taken from paper PMC6255099, “Amides from Piper capense with CNS Activity – A Preliminary SAR Analysis” (Molecules, 2009).

Assay [1] has as its target benzodiazepine site on the GABAA receptor. The assay can be described thus: [3H]-flumazenil binding assay (GABA-benzodiazepine binding assay). The settings on record: for Ki: as worded in text b6; for IC50: rat brain cortex, 0.5 nM [3H]-flumazenil, mean ± standard error, n.d. = not detected in tested concentrations below 10 mM; for affinity for the benzodiazepine site (in words): [3H]-flumazenil binding assay. Also noted: species or system rat. As for the experimental part: (§1) The GABA binding assay was carried out according to a previously published method, with modifications. To a suspension of rat brain cortex (500 µL) was added test solution (25 µL) and [^3H]-flumazenil (25 µL, Ro 15-1788, Perkin-Elmer Life Science) to 0.5 nM final concentration in the assay. The suspension was mixed and incubated for 40 min on ice and poured directly onto glass fiber filters (Adventic, GC-50) under suction, in an ice-bath, followed by washing with ice-cold Tris-citrate buffer. The amount of radioactivity was determined by liquid scintillation counting. Non-specific binding was determined using diazepam (1 µM final concentration in the assay) and flumazenil was used as positive control. Specific binding was calculated as total binding minus non-specific binding. All experiments were done in triplicate. The serotonin re-uptake inhibition assay was performed according to previously described methods.

Assay [2] deals with serotonin re-uptake transport protein (Rattus norvegicus, UniProt P31652). The assay can be described thus: [3H]-citalopram binding assay (serotonin re-uptake inhibition assay). Here is the method:
as §1

Assay [3] deals with MES seizures in mice. Also noted: method as in doi:10.1016/S0165-7208(06)80055-3. To be noted: cited from earlier work.
For assay [4], the system named is GABAA receptor. The arrangement: method as in PMID 1332016. The settings on record: cited from earlier work.
The mark [5] stands for this setting: mean ± standard error, n.d. = not detected in tested concentrations below 10 mM, read-out: [3H]-citalopram binding assay IC50.
[6] abbreviates: read-out: Ki, serotonin re-uptake transport protein.

Several values for one entry are separate records, joined by “and”; a condition that tells them apart may be missing. Identical values can stand only once. Like-named read-outs stand apart in the source and are kept apart here.

Chain of serotonin re-uptake transport protein (P31652 whole entry): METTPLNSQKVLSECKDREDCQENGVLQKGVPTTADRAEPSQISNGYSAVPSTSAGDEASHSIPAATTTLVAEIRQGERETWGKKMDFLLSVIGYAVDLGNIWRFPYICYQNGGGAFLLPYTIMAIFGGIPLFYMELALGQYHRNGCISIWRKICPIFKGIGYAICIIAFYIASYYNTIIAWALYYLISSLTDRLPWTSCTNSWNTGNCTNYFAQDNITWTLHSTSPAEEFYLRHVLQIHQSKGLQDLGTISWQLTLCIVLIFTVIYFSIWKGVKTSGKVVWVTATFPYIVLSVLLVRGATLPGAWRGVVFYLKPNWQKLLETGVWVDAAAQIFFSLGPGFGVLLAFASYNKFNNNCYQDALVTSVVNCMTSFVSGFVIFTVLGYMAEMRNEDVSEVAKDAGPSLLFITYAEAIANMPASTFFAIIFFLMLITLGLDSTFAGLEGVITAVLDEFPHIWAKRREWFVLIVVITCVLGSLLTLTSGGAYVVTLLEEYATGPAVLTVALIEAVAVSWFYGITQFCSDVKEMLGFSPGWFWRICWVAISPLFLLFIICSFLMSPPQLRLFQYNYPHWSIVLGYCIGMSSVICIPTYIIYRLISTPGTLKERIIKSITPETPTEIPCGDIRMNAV

A word on the Ki: it is a dissociation constant, usually derived from enzyme kinetics or from competition with a known ligand. With `O=C(/C=C/C=C/c1ccc2c(c1)OCO2)N1CCCCC1` [Compound 1, Piperine], in assay [1], affinity was put at a Ki of 1175 ± 3 µM; the IC50 is 1200 µM and 1180 µM.

For the molecule `O=C(/C=C/CCc1ccc2c(c1)OCO2)N1CCCCC1` [Compound 2, 4,5-Dihydropiperine], the IC50 in assay [2] (setting [5]) is 2980 ± 1630 µM; in assay [2] (setting [6]) it was 2980 ± 1630 µM; in assay [1] it was 1000 µM and 1050 µM. In assay [1], this molecule registered a Ki of 1054 ± 4 µM.

On to `O=C(CCCCc1ccc2c(c1)OCO2)N1CCCCC1` [Compound 4, Tetrahydropiperidine], for which, in assay [2] (setting [5]), the IC50 stood at 585 ± 1520 µM.

Turning to `O=C(/C=C/c1ccc2c(c1)OCO2)N1CCCCC1` [Compound 5, Antiepilepsirine], the “affinity for the benzodiazepine site (in words)” value (“affinity” below) in assay [1] is given as “no affinity”.

For the molecule `O=C(CCc1ccc2c(c1)OCO2)N1CCCCC1` [Compound 6, 3-Benzo[1,3]dioxol-5-yl-1-piperidin-1-yl-propan-1-one], the “protection against MES induced seizures” value in assay [3] is recorded as “protection”. Also, in assay [1], the “affinity” value is reported as “lack of affinity”.

Consider `O=C(/C=C/CCc1cc2c(cc1Cl)OCO2)N1CCCCC1` [Compound 8, trans-5-(6-Chlorobenzo[1,3]dioxol-5-yl)-1-(piperidin-1-yl)pent-2-en-1-one], for which the IC50 in assay [2] (setting [5]) and in assay [2] (setting [6]) was 2690 ± 1390 µM in each case.

Regarding `CC(C)NC(=O)CCc1ccc2c(c1)OCO2` [Compound 10, 3-Benzo[1,3]dioxol-5-yl-N-isopropyl-propionamide], the “protection against MES induced seizures” value in assay [3] is “protection”. Also, in assay [1], the “affinity” value was “lack of affinity”.

On to `COC1=CC(=O)O[C@@H](/C=C/c2ccc3c(c2)OCO3)C1` [methysticin, Methysticin], for which, in assay [4], the “association of GABAA receptor activation with the benzodiazepine binding site” value is “not to be associated with the benzodiazepine binding site”.
